Values quoted from earlier work in patent US20160174564A1, “BIOCIDE-FREE PREWETTED SPONGE CLOTH” (Kalle GmbH, priority 2014, published 2016).

conditions: saturated solutions of different salts; 20° C.

SMILES	aw value
[Cl-].[K+] [KCl]	0.843
[Cl-].[Li+] [LiCl]	0.112
O=[N+]([O-])[O-].O=[N+]([O-])[O-].[Mg+2] [Mg(NO3)2]	0.529
[Cl-].[Cl-].[Mg+2] [MgCl2]	0.327
[Br-].[Na+] [NaBr]	0.577
[Cl-].[Na+] [NaCl]	0.753
O=C([O-])[O-].[K+].[K+] [Sample K2CO3, K2CO3]	0.438
[Cl-].[Cl-].[Sr+2] [SrCl2]	0.708
